Three compounds from patent US20060292112A1, “Dendrimer-photosensitizer complexes for medical applications” (priority 1999, published 2006) can be followed below.

Common to all, as to assay type: physicochemical
Series [1] in a line: Fluorescence life time in ethanol. The note with it: for Fluorescence life time (τFl): for Pheo 16 the longer component of a double exponential decay; for Fluorescence life time (τFl), second decay component: double exponential decay.
Series [2] is described as follows: Singlet oxygen quantum yield (photoinduced singlet oxygen) in ethanol. The note with it: for singlet oxygen quantum yield (ΦA): in ethanol, before light exposure. The text has this: The quantum yield of the photoinduced singlet oxygen of Pheo (0.52) decreases to 0.05 for Pheo 16 (see Table 1).
(§1) They equal to the parameters of the free Pheo.

Series [3] can be described thus: Fluorescence intensity in ethanol. The conditions noted are these: versus fluorescence intensity of Pheo in ethanol. The text has this:
The fluorescence spectra of al samples show nearly the same shape. However, the fluorescence intensity of Pheo 16 in ethanol is 50 times smaller than the fluorescence intensity of Pheo in ethanol (see FIG. 2).

A short description of series [4]: Release of Pheo from dendrimer complex by light exposure (MALDI). The note with it: after 30 min light exposure with UV lamp (~1 kJ).
Source text: as §1
However, this process occurs only in the presence of oxygen. Presumably, the primary generated singlet oxygen caused the separation of the bonds between the dye molecules and the dendrimer.

Pheophorbide a [reference compound]: the “Fluorescence life time (τFl)” value in series [1] was 5.7 ± 0.2 ns; in series [1] (listed as Pheo), 5.7 ns. Also, the “singlet oxygen quantum yield (ΦA)” value in series [2] was 0.52.
In the case of “Pheophorbide a-diaminobutane-polypropylene-imine Dendrimer 3.0 Complex [Pheo 16]”, the “Fluorescence life time (τFl), second decay component” value in series [1] (relation of amplitudes 2 to 1) came out at 0.5 ns; in series [1] (relation of amplitudes 2 to 1, listed as Pheo-16-dendrimer complex), 0.5 ± 0.3 ns. Further, in series [1], the “Fluorescence life time (τFl)” value came to 4.9 ± 0.3 ns. For the same compound, the fluorescence lifetime, first component of double exponential decay in series [1] (relation of amplitudes 2 to 1) was determined as 4.5 ns. In addition, the “singlet oxygen quantum yield after light exposure” value in series [2] (after light exposure of a 3 ml sample with 40 J and 514 nm) was 0.47. In addition, the “singlet oxygen quantum yield (ΦA)” value in series [2] is given as 0.05. Further, the “fluorescence intensity relative to Pheo” value in series [3] is 50 times smaller. Moreover, in series [4], the “release of Pheo on light exposure” value was “release of Pheo”.
With `C=Cc1c(C)c2cc3nc(c4c5[nH]c(cc6nc(cc1[nH]2)C(C)=C6CC)c(C)c5C(=O)[C@@H]4C(=O)OC)[C@@H](CCC(=O)ON1C(=O)CCC1=O)[C@@H]3C` [Pheo-succinimide ester, pheophorbide a-succinimide ester], in series [1], the “Fluorescence life time (τFl)” value is given as 6.1 ± 0.3 ns. Moreover, the “singlet oxygen quantum yield (ΦA)” value in series [2] came to 0.55.
